In PubChem BioAssay AID1189 (EPA DSSTox, 2008):
Calls of active or inactive are those of the source.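 How the source made its calls: active means a tumor-causing dose value with its tumor site reported for any sex and species group of a rodent or other animal cancer study; inconclusive means only studies judged inadequate by the national testing program; inactive means tested in at least one study, none positive.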

Experiment: DSSTox (CPDBAS) Carcinogenic Potency Database Summary SingleCellCall Results
Details: animal chronic carcinogenicity bioassays, CPDB summary call
In short: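 Categorical carcinogenicity call compiled from published chronic rodent and other animal cancer bioassays; based on the most positive result across experiments for each sex-species, assigned on minimal evidence for or against activity.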

Structure (SMILES) | outcome
Cc1cc2c(nc1N)[nH]c1ccccc12 | active
CN[C@H]1CC[C@@H](c2ccc(Cl)c(Cl)c2)c2ccccc21 | inactive
O=C(O)CC[N+](=O)[O-] | inactive; active
CCCN=[N+]([O-])CCC | active
CCCCOC(=O)c1ccccc1C(=O)OCc1ccccc1 | active
CN(C)CCOc1ccc(/C(=C(/CCCl)c2ccccc2)c2ccccc2)cc1 | inactive
CCCOC(=O)c1cc(O)c(O)c(O)c1 | inactive
CNC(=O)CSP(=S)(OC)OC | inactive
O=NN(CCO)CCO | active; inactive
COc1cc(OC)c2c3c(c(=O)oc2c1)CCC3=O | inactive
CC[C@H](C)[C@H]1O[C@]2(CC[C@@H]1C)C[C@@H]1C[C@@H](C/C=C(\C)[C@@H](O[C@H]3C[C@H](OC)[C@@H](O[C@H]4C[C@H](OC)[C@@H](O)[C@H](C)O4)[C@H](C)O3)[C@@H](C)/C=C/C=C3\CO[C@@H]4[C@H](O)C(C)=C[C@@H](C(=O)O1)[C@]34O)O2 | inactive
OCc1ccccc1 | inactive
FC(Cl)(Cl)Cl | inactive; active
C[C@H]1CCCC(=O)CCC/C=C/c2cc(O)cc(O)c2C(=O)O1 | active
Cc1cnc2ccc3c(nc(N)n3C)c2n1 | active
O=[N+]([O-])c1cccc2ccccc12 | inactive
Nc1ccc2ccccc2c1 | active
O=C/C=C/c1ccccc1 | inactive
Cc1cccc(Nc2cc(Cl)nc(SCC(=O)NCCO)n2)c1C | active; inactive
CCN(N)C=O | active
CN(C)c1ccccc1 | active
NNCc1ccccc1 | active

Structure (SMILES) | outcome
[O]=[Mo](=[O])=[O] | active
S=C=NCc1ccccc1 | inactive
C=C(C)[C@H]1Cc2c(ccc3c2O[C@@H]2COc4cc(OC)c(OC)cc4[C@@H]2C3=O)O1 | inactive; active
[Cl-].[Cl-].[Cl-].[Fe+3] | inactive
Clc1cc2c(cc1Cl)Oc1cc(Cl)c(Cl)cc1O2 | active; inactive
C=C1CC[C@H](O)C/C1=C/C=C1\CCC[C@]2(C)[C@@H]([C@H](C)CC[C@@H](O)C(C)(C)O)CC[C@@H]12 | inactive; active
CN(N=O)c1ccc([N+](=O)[O-])cc1 | inactive
COC(=O)C1=C(C)NC(C)=C(C(=O)OCCc2ccc(N3CCN(C(c4ccccc4)c4ccccc4)CC3)cc2)C1c1cccc([N+](=O)[O-])c1 (stereo unspecified) | inactive; active
CCCCC(CC)COC(=O)CCCCC(=O)OCC(CC)CCCC (stereo unspecified) | active
O=NN1C[C@H](O)C[C@H]1C(=O)O | inactive
C=C(Cl)Cl | active
C=CCN(CCO)N=O | active
C=Cc1cccc(C)c1 | inactive; active
S=C=NCCCc1ccccc1 | inactive
C[C@@H]1C[C@H]2[C@@H]3CCC4=CC(=O)C=C[C@]4(C)[C@@]3(F)[C@@H](O)C[C@]2(C)[C@@]1(O)C(=O)CO | inactive
CC(C)N=[N+]([O-])C(C)C | active
Brc1cc(Br)c2cccnc2c1 | inactive; active
CCN(C#N)N=O | active
CC(=O)N[C@@H](CC(C)C)C(=O)N[C@@H](CC(C)C)C(=O)N[C@H](C=O)CCCN=C(N)N | active; inactive
CCC(C)c1cc([N+](=O)[O-])cc([N+](=O)[O-])c1O (stereo unspecified) | inactive
COc1cc2c(c3oc(=O)c4c(c13)CCC4=O)C1C=COC1O2 (stereo unspecified) | active
C[N+](=O)[O-] | active

Structure (SMILES) | outcome
CC/C=C(/CC)[N+](=O)[O-] | active
CC(Oc1c(Cl)cccc1Cl)C1=NCCN1 (stereo unspecified) | inactive
C=C(C)C(=O)Nc1ccc(Cl)c(Cl)c1 | inactive
Clc1c(Cl)c(Cl)c(Cl)c(Cl)c1Cl | active; inactive
CCSC[C@H](N)C(=O)O | inactive
CCCN(CCC)N=O | active
O=[N+]([O-])c1ccc(O)c([N+](=O)[O-])c1 | inactive
CCN(N=O)C(N)=O | active; inactive
Nc1ccc(Oc2ccc(N)cc2)cc1 | active
O.O=S(=O)([O-])[O-].[Mn+2] | inactive
O=[N+]([O-])c1ccccc1 | active
CCN(C)N=O | active
ClC1(Cl)C2(Cl)C3(Cl)C4(Cl)C(Cl)(Cl)C5(Cl)C3(Cl)C1(Cl)C5(Cl)C24Cl (stereo unspecified) | active; inactive
CCC(O)OC(O)CC (stereo unspecified) | inactive
CCOc1ccc(NC(C)=O)cc1N | active
FCCl | active
CC(C)=NO | active
NC(=O)Cc1cccc2ccccc12 | inactive; active
O=P(OCCCl)(OCCCl)OCCCl | active
CN(C)/N=N/c1nc[nH]c1C(N)=O | active
CC(=O)OCC(=O)[C@@]12N=C(C)O[C@@H]1C[C@H]1[C@@H]3CCC4=CC(=O)C=C[C@]4(C)[C@H]3[C@@H](O)C[C@@]12C | active
C=C/C=N/O | inactive

Structure (SMILES) | outcome
CCNC(=O)Nc1ncc([N+](=O)[O-])s1 | active
OC(Cn1cncn1)(Cn1cncn1)c1ccc(F)cc1F | active; inactive
CN1[C@@H]2CC[C@H]1CC(OC(=O)C(CO)c1ccccc1)C2 (stereo partly specified) | inactive; active
O=C(Nc1ccc([N+](=O)[O-])cc1Cl)c1cc(Cl)ccc1O | inactive
CC(=O)CN(CC(O)CO)N=O (stereo unspecified) | active
CCCCCCCCCCCCN(C)N=O | active
CN(N=O)c1ccccc1 | active
Nc1cccc2c(N)cccc12 | active
Nc1ccc(/C=C/c2ccc(N)cc2S(=O)(=O)O)c(S(=O)(=O)O)c1 | inactive; active
Nc1ccc(Cc2ccc(N)cc2)cc1 | active; inactive
NNc1nc(-c2ccc(N)cc2)cs1 | active
c1ccc2sc(SN3CCOCC3)nc2c1 | inactive
Cc1c(N(C)C)c(=O)n(-c2ccccc2)n1C | inactive
CC(=O)O[C@@H]1[C@@H](O)C2OC3C=C(C)C(=O)C(O)[C@@]3(CO)[C@]1(C)[C@]21CO1 (stereo partly specified) | inactive
Nc1ccc(O)c(N)c1 | active
CCN(CC(F)(F)F)N=O | active
O=C(O)COc1ccc(Cl)cc1Cl | inactive
CC(=O)OC/C=C(\C)CCC=C(C)C | inactive
Cc1c(N(C)CS(=O)(=O)O)c(=O)n(-c2ccccc2)n1C | active
Nc1ccc([N+](=O)[O-])cc1O | active
CC1(C)OC(=O)NC1=O | inactive
CC1=C(/C=C/C(C)=C/C=C/C(C)=C/C(=O)O)C(C)(C)CCC1 | inactive

Structure (SMILES) | outcome
Clc1ccc(C(c2ccccc2Cl)C(Cl)Cl)cc1 (stereo unspecified) | inactive
ClC(Br)Br | active
Cc1cccc(C)c1N | inactive; active
FC(Cl)C(F)(F)F (stereo unspecified) | inactive
Nc1ncc([N+](=O)[O-])s1 | active
c1ccc(-c2ccccc2)cc1 | inactive; active
CCCCCCN(N=O)C(N)=O | active; inactive
CC(C)Cc1ccc(C(C)C(=O)O)cc1 (stereo unspecified) | inactive
Cc1ccccc1 | active
COP(=O)(OC)C(O)C(Cl)(Cl)Cl (stereo unspecified) | inactive
O=C1c2ccccc2CN2C(=O)c3ccccc3CN12 | active
[CH3][Hg][Cl] | active
S=P(N1CC1)(N1CC1)N1CC1 | active
CC1(C)S[C@@H]2[C@H](NC(=O)[C@H](N)c3ccccc3)C(=O)N2[C@H]1C(=O)O | inactive
Nc1ccc(N)c(Cl)c1 | inactive
CC(=O)CN(N=O)C(=O)NCCCl | active
O=[N+]([O-])c1cc([As](=O)(O)O)ccc1O | inactive
Nc1ccccc1-c1ccccc1 | active; inactive
CCOc1ccc(NC(=O)CC(C)O)cc1 (stereo unspecified) | active
C[C@@H]1O[C@@]2(CS1)CN1CCC2CC1 | inactive
O=S1(=O)CCCO1 | active
O=C(O)c1ccc([N+](=O)[O-])cc1 | active

Structure (SMILES) | outcome
CN(C)C(=O)Nc1ccc(Cl)cc1 | active
CCN(CC)CCCNC(=O)Cn1ncc(-c2ccccc2)c1-c1ccccc1 | inactive
COc1cc(/C=C/C(=O)O[C@H]2CC[C@]34C[C@]35CC[C@]3(C)[C@@H]([C@H](C)CCC=C(C)C)CC[C@@]3(C)[C@@H]5CC[C@H]4C2(C)C)ccc1O | inactive
COC(=O)C1=CCCN(C)C1 | active
C=CC1CC=CCC1 (stereo unspecified) | active
OCC(O)CO | inactive
CC(C)Oc1ccc(Nc2ccccc2)cc1 | inactive
Clc1ccc(-c2ccc(Cl)c(Cl)c2Cl)c(Cl)c1Cl | active
CCC1(c2ccccc2)C(=O)NC(=O)NC1=O | active
COc1cc(NC(=O)C(N=Nc2ccc(-c3ccc(N=NC(C(C)=O)C(=O)Nc4cc(OC)c(Cl)cc4OC)c(Cl)c3)cc2Cl)C(C)=O)c(OC)cc1Cl (stereo unspecified) | inactive
Nc1ncn([C@@H]2O[C@H](CO)[C@@H](O)[C@H]2O)c(=O)n1 | active
C=CN1CCCC1=O | active; inactive
Nc1ccc(N=Nc2ccc(N)cc2)cc1 | inactive; active
O=C(O)c1cc(=O)[nH]c(=O)[nH]1 | inactive
O=CCCl | active
C[C@]12C/C(=C/O)C(=O)C[C@@H]1CC[C@@H]1[C@@H]2CC[C@@]2(C)[C@H]1CC[C@]2(C)O | active
CC(O)COC(C)(C)C (stereo unspecified) | active
c1ccc(N=Nc2ccccc2)cc1 | active
Nc1c(F)c(N)c(F)c(F)c1F | active; inactive
CCC(C)[N+](=O)[O-] (stereo unspecified) | active
ClC(Cl)=C(Cl)C(Cl)=C(Cl)Cl | active
